According to patent US9328138B2 (priority 2011, dated 2016):

What was measured:
[1] = target: T1, HCV genotype 1b (BK) NS3 modified enzyme with a R155K mutation (Hepatitis C virus genotype 1b, UniProt P26663, R1181K); test: HCV NS3 protease time-resolved fluorescence (TRF) assay, genotype 1b R155K; assay type: biochemical; conditions: Ki 1b R155K, genotype 1b (BK) NS3 R155K; single value
T1 construct: HCV genotype 1b (BK) NS3 modified enzyme
Method in brief: (§1)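 Assay buffer: 50 mM HEPES pH 7.5, 150 mM NaCl, 0.1% PEG 8000, 0.15% Triton X-100. Ten-minute enzyme–inhibitor preincubation; substrate at 25 nM final; 6 h reaction, room temperature; signal/background set at 5-20 by enzyme amount.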

[2] = target: HCV NS3 protease genotype 3a (3A-1) (Hepatitis C virus genotype 3a, UniProt Q81258); test: HCV NS3 protease time-resolved fluorescence (TRF) assay, genotype 3a; assay type: biochemical; conditions: Ki 3a
Method in brief: as §1

`C=CC1C[C@]1(NC(=O)[C@@H]1C[C@@H]2CN1C(=O)[C@H](C(C)(C)C)NC(=O)O[C@@H]1CCC[C@H]1CCCCCc1c(nc3ccccc3c1OCCN1CCOCC1)O2)C(=O)NS(=O)(=O)C1(COCCOC)CC1` (stereo partly drawn) [Example 65, (3aR,7S,10S,12R, 24aR)-7-tert-butyl-N-{(1R,2S)-2-ethenyl-1-[({1-[(2-methoxyethoxy)methyl]cyclopropyl}sulfonyl)carbamoyl]cyclopropyl}-19-[2-(morpholin-4-yl)ethoxy]-5,8-dioxo-1,2,3,3a,5,6,7,8,11, 12,20,21,22,23,24, 24a-hexadecahydro-10H-9,12-methanocyclopenta [18,19][1,10,3,6] dioxadiaza-cyclononadecino [11,12-b]quinoline-10-carboxamide] was tested, and the Ki [1] was 0.56 nM and the Ki [2] was 16 nM.

`C=C[C@@H]1C[C@]1(NC(=O)[C@@H]1C[C@@H]2CN1C(=O)[C@H](C1CCCC1)NC(=O)O[C@@H]1CCC[C@H]1CC/C=C/Cc1c(nc3ccccc3c1OCC(=O)O)O2)C(=O)NS(=O)(=O)C1CC1` [Example 66, {[(3aR,7S,10S,12R,21E,24aS)-7-cyclopentyl-10-({(1R,2S)-1-[(cyclopropylsulfonyl)carbamoyl]-2-ethenylcyclopropyl}carbamoyl)-5,8-dioxo-1,2,3,3a,5,6,7,8,11,12,20,23,24,24a-tetradecahydro-10H-9,12-methanocyclopenta[18,19][1,10,3,6]dioxadiazacyclononadecino[11,12-b]quinolin-19-yl]oxy}acetic acid] was tested, and the Ki [1] was 0.077 nM and the Ki [2] was 25 nM.

With `C=C[C@@H]1C[C@]1(NC(=O)[C@@H]1C[C@@H]2CN1C(=O)[C@H](C1CCCC1)NC(=O)O[C@@H]1CCC[C@H]1CC/C=C/Cc1c(nc3ccccc3c1OCC(=O)N1CCCC1)O2)C(=O)NS(=O)(=O)C1CC1` [Example 67, (3aR,7S,10S,12R,21E,24aS)-7-cyclopentyl-N-{(1R,2S)-1-[(cyclopropylsulfonyl)carbamoyl]-2-ethenylcyclopropyl}-5,8-dioxo-19-[2-oxo-2-(pyrrolidin-1-yl)ethoxy]-1,2,3,3a,5,6,7,8,11,12,20,23,24,24a-tetradecahydro-10H-9,12-methanocyclopenta[18,19][1,10,3,6]dioxadiazacyclononadecino[11,12-b]quinoline-10-carboxamide] the Ki [1] was 0.081 nM and the Ki [2] was 6.6 nM.

`C=C[C@@H]1C[C@]1(NC(=O)[C@@H]1C[C@@H]2CN1C(=O)[C@H](C1CCCC1)NC(=O)O[C@@H]1CCC[C@H]1CC/C=C/Cc1c(nc3ccccc3c1OCCCCO)O2)C(=O)NS(=O)(=O)C1CC1` [Example 68, (3aR,7S,10S,12R,21E,24aS)-7-cyclopentyl-N-{(1R,2S)-1-[(cyclopropylsulfonyl)carbamoyl]-2-ethenylcyclopropyl}-19-(4-hydroxybutoxy)-5,8-dioxo-1,2,3,3a,5,6,7,8,11,12,20,23,24,24a-tetradecahydro-10H-9,12-methanocyclopenta[18,19][1,10,3,6]dioxadiazacyclononadecino[11,12-b]quinoline-10-carboxamide] showed a Ki [1] of 0.16 nM and a Ki [2] of 1.6 nM.

In the case of `C=C[C@@H]1C[C@]1(NC(=O)[C@@H]1C[C@@H]2CN1C(=O)[C@H](C1CCCC1)NC(=O)O[C@@H]1CCC[C@H]1CC/C=C/Cc1c(nc3ccccc3c1OCCO)O2)C(=O)NS(=O)(=O)C1CC1` [Example 69, (3aR,7S,10S,12R,21E,24aS)-7-cyclopentyl-N-{(1R,2S)-1-[(cyclopropylsulfonyl)carbamoyl]-2-ethenylcyclopropyl}-19-(2-hydroxyethoxy)-5,8-dioxo-1,2,3,3a,5,6,7,8,11,12,20,23,24,24a-tetradecahydro-10H-9,12-methanocyclopenta[18,19][1,10,3,6]dioxadiazacyclononadecino[11,12-b]quinoline-10-carboxamide], the Ki [1] is reported as under 0.016 nM and the Ki [2] is reported as 1.8 nM.

`C=C[C@@H]1C[C@]1(NC(=O)[C@@H]1C[C@@H]2CN1C(=O)[C@H](C(C)(C)C)NC(=O)O[C@@H]1CCC[C@H]1CC/C=C/Cc1c(nc3ccccc3c1OCCCO)O2)C(=O)NS(=O)(=O)C1CC1` [Example 70, (3aR,7S,10S,12R,21E,24aS)-7-tert-butyl-N-{(1R,2S)-1-[(cyclopropylsulfonyl)carbamoyl]-2-ethenylcyclopropyl}-19-(3-hydroxypropoxy)-5,8-dioxo-1,2,3,3a,5,6,7,8,11,12,20,23,24,24a-tetradecahydro-10H-9,12-methanocyclopenta[18,19][1,10,3,6]dioxadiazacyclononadecino[11,12-b]quinoline-10-carboxamide] gave a Ki [1] of 0.066 nM and a Ki [2] of 0.59 nM.

Compound `C=C[C@@H]1C[C@]1(NC(=O)[C@@H]1C[C@@H]2CN1C(=O)[C@H](C(C)(C)C)NC(=O)O[C@@H]1CCC[C@H]1CC/C=C/Cc1c(nc3ccccc3c1OCCCO)O2)C(=O)NS(=O)(=O)C1(C)CC1` [Example 71, (3aR,7S,10S,12R,21E,24aS)-7-tert-butyl-N-[(1R,2S)-2-ethenyl-1-{[(1-methylcyclopropyl)sulfonyl]carbamoyl}cyclopropyl]-19-(3-hydroxypropoxy)-5,8-dioxo-1,2,3,3a,5,6,7,8,11,12,20,23,24,24a-tetradecahydro-10H-9,12-methanocyclopenta[18,19][1,10,3,6]dioxadiazacyclononadecino[11,12-b]quinoline-10-carboxamide] has a Ki [1] of under 0.016 nM and a Ki [2] of 0.42 nM.

`C=C[C@@H]1C[C@]1(NC(=O)[C@@H]1C[C@@H]2CN1C(=O)[C@H](C1CCCC1)NC(=O)O[C@@H]1CCC[C@H]1CC/C=C/Cc1c(nc3ccccc3c1OCCCO)O2)C(=O)NS(=O)(=O)C1CC1` [Example 72, (3aR,7S,10S,12R,21E,24aS)-7-cyclopentyl-N-{(1R,2S)-1-[(cyclopropylsulfonyl)carbamoyl]-2-ethenylcyclopropyl}-19-(3-hydroxypropoxy)-5,8-dioxo-1,2,3,3a,5,6,7,8,11,12,20,23,24,24a-tetradecahydro-10H-9,12-methanocyclopenta[18,19][1,10,3,6]dioxadiazacyclononadecino[11,12-b]quinoline-10-carboxamide] was tested, and the Ki [1] was under 0.016 nM and the Ki [2] was 1.1 nM.

`C=C[C@@H]1C[C@]1(NC(=O)[C@@H]1C[C@@H]2CN1C(=O)[C@H](C1CCCC1)NC(=O)O[C@@H]1CCC[C@H]1CC/C=C/Cc1c(nc3ccccc3c1OCC(F)(F)CO)O2)C(=O)NS(=O)(=O)C1CC1` [Example 73, (3aR,7S,10S,12R,21E,24aS)-7-cyclopentyl-N-{(1R,2S)-1-[(cyclopropylsulfonyl)carbamoyl]-2-ethenylcyclopropyl}-19-(2,2-difluoro-3-hydroxypropoxy)-5,8-dioxo-1,2,3,3a,5,6,7,8,11,12,20,23,24,24a-tetradecahydro-10H-9,12-methanocyclopenta[18,19][1,10,3,6]dioxadiazacyclononadecino[11,12-b]quinoline-10-carboxamide] was tested, and the Ki [1] was 0.14 nM and the Ki [2] was 2.5 nM.

`C=C[C@@H]1C[C@]1(NC(=O)[C@@H]1C[C@@H]2CN1C(=O)[C@H](C1CCCC1)NC(=O)O[C@@H]1CCC[C@H]1CC/C=C/Cc1c(nc3ccccc3c1OCCCOC(=O)CN(C)C)O2)C(=O)NS(=O)(=O)C1CC1` [Example 74] was tested, and the Ki [1] was 0.1 nM and the Ki [2] was 1.3 nM.

In the case of `C=C[C@@H]1C[C@]1(NC(=O)[C@@H]1C[C@@H]2CN1C(=O)[C@H](C(C)(C)C)NC(=O)O[C@@H]1CCC[C@H]1CC/C=C/Cc1c(nc3ccccc3c1OCCN1CCCCC1)O2)C(=O)NS(=O)(=O)C1CC1` [Example 75, (3aR,7S,10S,12R,21E,24aS)-7-tert-butyl-N-{(1R,2S)-1-[(cyclopropylsulfonyl)carbamoyl]-2-ethenylcyclopropyl}-5,8-dioxo-19-[2-(piperidin-1-yl)ethoxy]-1,2,3,3a,5,6,7,8,11,12,20,23,24,24a-tetradecahydro-10H-9,12-methanocyclopenta[18,19][1,10,3,6]dioxadiazacyclononadecino[11,12-b]quinoline-10-carboxamide], the Ki [1] is reported as 0.28 nM and the Ki [2] is reported as 2.3 nM.

For `C=CC1C[C@]1(NC(=O)[C@@H]1C[C@@H]2CN1C(=O)[C@H](C1CCCC1)NC(=O)O[C@@H]1CCC[C@H]1CC/C=C/Cc1c(nc3ccccc3c1OCCN1C(=O)CCC1=O)O2)C(=O)NS(=O)(=O)C1CC1` (stereo partly drawn) [Example 76, (3aR,7S,10S,12R,21E,24a)-7-cyclo pentyl-N-{(1R,2S)-1-[(cyclopropylsulfonyl)carbamoyl]-2-ethenylcyclopropyl}-19-[2-(2,5-dioxopyrrolidin-1-yl)ethoxy]-5,8-dioxo-1,2,3,3a,5,6,7,8,11,12,20,23,24,24a-tetradeca hydro-10H-9,12-methanocyclopenta[18,19][1,10,3,6] dioxadiazacyclononadecino[11,12-b] quinoline-10-carboxamide], the Ki [1] was 0.09 nM and the Ki [2] was 0.71 nM.

Compound `C=CC1C[C@]1(NC(=O)[C@@H]1C[C@@H]2CN1C(=O)[C@H](C1CCCC1)NC(=O)O[C@@H]1CCC[C@H]1CC/C=C/Cc1c(nc3ccccc3c1OCCCN(C)C)O2)C(=O)NS(=O)(=O)C1CC1` (stereo partly drawn) [Example 77, (3aR,7S,10S,12R,21E,24aS)-7-cyclo pentyl-N-{(1R,2S)-1-[(cyclopropylsulfonyl)carbamoyl]-2-ethenylcyclopropyl}-19-[3-(dimethylamino)propoxy]-5,8-dioxo-1,2,3,3a,5,6,7,8,11,12,20,23,24, 24a-tetradecahydro-10H-9,12-methano cyclopenta[18,19][1,10,3,6] dioxadiazacyclo-nonadecino[11,12-b]quinoline-10-carboxamide] has a Ki [1] of 0.09 nM and a Ki [2] of 0.72 nM.
